Laboratory results taken from US20230285450A1 (priority 2020, published 2023).
Where a name gives a salt, the structure may show the parent alone.

How the values were obtained:
[1] = test system: bovine cornea (eye mucosa irritation)
Source text: The BCOP assay is a test to evaluate an irritation index for the eye mucosa using opacity and permeability. […] An in vitro irritancy score (IVIS) may be calculated by measuring the opacity and permeability, and the IVIS value may be calculated by [Equation 3].
IVIS=Mean opacity unit[…] [Equation 3]

E. coli = experiment: Sterilization test of nitrogen oxide solutions without plasma; type: cell-based; details: ionized nitrogen oxide solutions without plasma
Method: (§1) In order to confirm a sterilization effect of nitrogen oxides without plasma, ionized NO, NO2 and NO3 solutions were prepared and then sterilization experiments of S. typhimurium, S. aureus and E. coli were tested.

S. aureus = experiment: as above; type: cell-based; details: ionized nitrogen oxide solutions without plasma
Method: as §1

S. typhimurium = experiment: as above; type: cell-based; details: ionized nitrogen oxide solutions without plasma
Method: as §1

[2] = test system: SKINETHIC™ human skin model; experiment: Skin irritation test; type: cell-based; details: relative to negative control group (PBS)
Method: In the skin irritation test, the absorbance was measured for a […]™ human skin model, and a cell viability value (%) was calculated using [Equation 4] to [Equation 6].
Cell viability (%) of negative control group=[absorbance of negative control group/absorbance of negative control group]×100 [Equation 4]
Cell viability (%) of positive control group=[absorbance of positive control group/absorbance of negative control group]×100 [Equation 5]

cells = experiment: Annexin V/PI toxicity evaluation; type: cell-based; details: spots in upper right end indicate dead cells

In the case of `CCO` [ethyl alcohol], the “corneal opacity (appearance)” value [1] is reported as “completely opaque”, the “IVIS (in vitro irritancy score)” value ([1]; bovine) is reported as 39.4 ± 3.6 and the Opacity unit ([1]; bovine) is reported as 19.9 ± 0.6. The “Transmittance (Absorbance (OD490))” value ([1]; bovine) was 1.300 ± 0.203.
With `O=NO` [NO2] the sterilization effect (E. coli) was “no sterilization effect was observed”, the sterilization effect (S. aureus) was “no sterilization effect was observed” and the sterilization effect (S. typhimurium) was “no sterilization effect was observed”.
`O=[N+]([O-])O` [NO3] was tested, and the sterilization effect (E. coli) was “no sterilization effect was observed”, the sterilization effect (S. aureus) was “no sterilization effect was observed” and the sterilization effect (S. typhimurium) was “no sterilization effect was observed”.
With `CCCCCCCCCCCCOS(=O)(=O)[O-].[Na+]` [sodium dodecyl sulfate] the cell viability [2] was “about 1.1%”.
With `OO` [H2O2, hydrogen peroxide] the “Annexin V/PI toxicity” value (cells) was “many spots were present in the upper right end”.
In the case of `CN(C)CCCN1c2ccccc2Sc2ccc(Cl)cc21` [chlorpromazine hydrochloride], the phototoxicity conclusion (BALB/3T3 clone A31 cells) is reported as “phototoxicity was shown”, the “mean photo effect (MPE)” value (BALB/3T3 clone A31 cells; mouse) is reported as 0.418 and the “photo irritation factor (PIF)” value (BALB/3T3 clone A31 cells; mouse) is reported as 18.882.
